We go through six compounds from patent US6642238B2, “Oxazolidinone thioamides with piperazine amide substituents” (Pharmacia and Upjohn Company, priority 2000, dated 2003).

In brackets after ≈: the same amount, converted by molar mass.

What all share (type): cell-based
Assay [1] deals with Streptococcus pneumoniae (SPNE 9912). The assay can be described thus: MIC by agar dilution, SPNE 9912. The conditions noted are these: Minimum Inhibitory Concentration, strain SPNE 9912; for MIC: Streptococcus pneumoniae. An excerpt:
(§1) The oxazolidinone antibacterial agents of this invention have useful activity against a variety of organisms. The in vitro activity of compounds of this invention can be assessed by standard testing procedures such as the determination of minimum inhibitory concentration (MIC) by agar dilution as described in “Approved Standard. Methods for Dilution Antimicrobial Susceptibility Tests for Bacteria That Grow Aerobically”, 3rd. ed., published 1993 by the National Committee for Clinical Laboratory Standards, Villanova, Pa., USA. The activity of compounds of this invention against Staphylococcus aureus, Staphylococcus epidermidis, Streptococcus pneumoniae, Streptococcus pyogens, Enterococcus faecalis, Moraxella catarrhalis and H. influenzae is shown in Table 1.
On the technique in general: Agar dilution tests growth on a series of plates holding different concentrations.

The subject of assay [2] is Moraxella catarrhalis (MCAT 30607). The assay can be described thus: MIC by agar dilution, MCAT 30607. The conditions noted are these: Minimum Inhibitory Concentration, strain MCAT 30607; for MIC: Moraxella catarrhalis.
From the text: as §1

The subject of assay [3] is Staphylococcus epidermidis (SEPI 30593). The assay can be described thus: MIC by agar dilution, SEPI 30593. The conditions noted are these: Minimum Inhibitory Concentration, strain SEPI 30593; for MIC: Staphylococcus epidermidis.
From the text: as §1

Assay [4] relates to Streptococcus pyogens (SPYO 152). Briefly: MIC by agar dilution, SPYO 152. The conditions noted are these: Minimum Inhibitory Concentration, strain SPYO 152; for MIC: Streptococcus.
From the text: as §1

In assay [5] the test system is Enterococcus faecalis (EFAE 12712). The assay can be described thus: MIC by agar dilution, EFAE 12712. The conditions noted are these: Minimum Inhibitory Concentration, strain EFAE 12712; for MIC: Enterococcus faecalis.
From the text: as §1

Assay [6] relates to H. influenzae (HINF 30063). The assay can be described thus: MIC by agar dilution, HINF 30063. The conditions noted are these: Minimum Inhibitory Concentration, strain HINF 30063; for MIC: Haemophilus influenzae.
From the text: as §1

The subject of assay [7] is Staphylococcus aureus (SAUR 9213). Briefly: MIC by agar dilution, SAUR 9213. The conditions noted are these: Minimum Inhibitory Concentration, strain SAUR 9213; for MIC: Staphylococcus aureus.
From the text: as §1

Assay [8] deals with Enterococcus faecalis (EFAE 9217). Briefly: MIC by agar dilution, EFAE 9217. The conditions noted are these: Minimum Inhibitory Concentration, strain EFAE 9217; for MIC: Enterococcus faecalis.
From the text: as §1

Regarding `CCC(=S)NC[C@H]1CN(c2ccc(N3CCN(C(=O)CSC)CC3)c(F)c2)C(=O)O1` [EX 2, N-{[(5S)-3-(3-fluoro-4-{4-[2-(methylsulfanyl)acetyl]-1-piperazinyl}phenyl)-2-oxo-1,3-oxazolidin-5-yl]methyl}propanethioamide], the MIC in assay [1] was less than 0.5 µg/mL; in assay [2] it was 4 µg/mL (≈ 8.8 µM); in assay [3], 1 µg/mL (≈ 2.2 µM); in assay [4], 1 µg/mL (≈ 2.2 µM); in assay [5], 1 µg/mL (≈ 2.2 µM); in assay [6], more than 64 µg/mL. Also, the MIC in assay [7] is 2 µg/mL (≈ 4.4 µM); in assay [8] it was 1 µg/mL (≈ 2.2 µM).
With `CCC(=S)NC[C@H]1CN(c2ccc(N3CCN(C(=O)CS(C)(=O)=O)CC3)c(F)c2)C(=O)O1` [EX 3, N-{ [(5S)-3-(3-fluoro-4-{4-[2-(methylsulfonyl)acetyl]-1-5 piperazinyl}phenyl]-2-oxo-1,3-oxazolidin-5-yl]methyl}propanethioamide], the MIC in assay [1] was 0.25 µg/mL (≈ 0.514 µM); in assay [2], 2 µg/mL (≈ 4.11 µM); in assay [3] it was 0.5 µg/mL (≈ 1.03 µM); in assay [4], 0.5 µg/mL (≈ 1.03 µM); in assay [5] it was 1 µg/mL (≈ 2.06 µM); in assay [6] it was 8 µg/mL (≈ 16.4 µM). The MIC came out at 2 µg/mL (≈ 4.11 µM) in assay [7] and 0.5 µg/mL (≈ 1.03 µM) in assay [8].
`CCC(=S)NC[C@H]1CN(c2ccc(N3CCN(C(=O)[C@H](COC)OC)CC3)c(F)c2)C(=O)O1` [EX 9, N-[((5S)-3-{3-fluoro-4-[4-((2S)-2,3-dimethyoxypropanoyl)-1-piperazinyl]phenyl}-2-oxo-1,3-oxazolidin-5-yl)methyl]propanethioamide]: the “SPNE 9912 MIC” value in assay [1] came to 1 µg/mL. Also, in assay [2], the “MCAT 30607 MIC” value stood at 4 µg/mL. Moreover, the “SEPI 30593 MIC” value in assay [3] stood at 2 µg/mL. For the same compound, in assay [4], the “SPYO 152 MIC” value was 1 µg/mL. Further, the “EFAE 12712 MIC” value in assay [5] came to 4 µg/mL. Besides, the “HINF 30063 MIC” value in assay [6] came to 32 µg/mL. For the same compound, in assay [7], the “SAUR 9213 MIC” value turned out to be 4 µg/mL. For the same compound, the “EFAE 9217 MIC” value in assay [8] came out at 2 µg/mL.
`CCC(=S)NC[C@H]1CN(c2ccc(N3CCN(C(=O)C(CO)OC)CC3)c(F)c2)C(=O)O1` (stereo partly drawn) [EX 10, N-[((5S)-3-{3-fluoro-4-[4-((2S)-3-hydroxy-2-methyoxypropanoyl)-1-piperazinyl]phenyl}-2-oxo-1,3-oxazolidin-5-yl)methyl]propanethioamide]: the MIC in assay [1] stood at 1 µg/mL (≈ 2.13 µM); in assay [2], 4 µg/mL (≈ 8.54 µM); in assay [3], 2 µg/mL (≈ 4.27 µM); in assay [4], 1 µg/mL (≈ 2.13 µM); in assay [5], 2 µg/mL (≈ 4.27 µM); in assay [6], 16 µg/mL (≈ 34.1 µM). Moreover, the MIC is 4 µg/mL (≈ 8.54 µM) in assay [7] and 1 µg/mL (≈ 2.13 µM) in assay [8].
With `CCC(=S)NC[C@H]1CN(c2ccc(N3CCN(C(=O)CCO)CC3)c(F)c2)C(=O)O1` [EX 13], the MIC in assay [1] worked out at 0.5 µg/mL (≈ 1.14 µM); in assay [2] it was 2 µg/mL (≈ 4.56 µM); in assay [3], 1 µg/mL (≈ 2.28 µM); in assay [4], 0.5 µg/mL (≈ 1.14 µM); in assay [5], 1 µg/mL (≈ 2.28 µM); in assay [6], 8 µg/mL (≈ 18.2 µM). In addition, the values for the MIC in assay [7] and in assay [8] were 2 µg/mL (≈ 4.56 µM) and 1 µg/mL (≈ 2.28 µM), respectively.
Regarding `CCC(=S)NC[C@H]1CN(c2ccc(N3CCN(C(=O)C(C)(CO)CO)CC3)c(F)c2)C(=O)O1` [EX 18, N-{[(5S)-3-(3-fluoro-4-{4-[3-hydroxy-2-(hydroxymethyl)-2-mnethylpropanoyl]-1-piperazinyl}phenyl)-2-oxo-1,3-oxazolidin-5-yl]methyl}propanethioamide], the “SPNE 9912 MIC” value in assay [1] turned out to be 0.5 µg/mL. In assay [2], the “MCAT 30607 MIC” value stood at 4 µg/mL. In addition, in assay [3], the “SEPI 30593 MIC” value was 1 µg/mL. The “SPYO 152 MIC” value in assay [4] came to 1 µg/mL. The “EFAE 12712 MIC” value in assay [5] worked out at 2 µg/mL. Besides, the “HINF 30063 MIC” value in assay [6] was 32 µg/mL. The “SAUR 9213 MIC” value in assay [7] turned out to be 4 µg/mL. Besides, in assay [8], the “EFAE 9217 MIC” value is 2 µg/mL.
